Earlier results on one compound are cited in US4375464A, “Antibiotic AY24,668 and process of preparation” (Ayerst, McKenna & Harrison Inc., priority 1981, dated 1983).

For data set [1] the following is noted: R. R. Martel et al., Can. J. Physiol., 55, 48 (1977).
The test system of data set [2] is Candida albicans.
Data set [3] has as its system Candida albicans. This is another data set of the same source.

Each structure is given as a SMILES string.

As for `CO[C@H]1C[C@@H]2CC[C@@H](C)[C@@](O)(O2)C(=O)C(=O)N2CCCC[C@H]2C(=O)O[C@H]([C@H](C)C[C@@H]2CC[C@@H](O)[C@H](OC)C2)CC(=O)[C@H](C)/C=C(\C)[C@@H](O)[C@@H](OC)C(=O)[C@H](C)C[C@H](C)/C=C/C=C/C=C/1C` [rapamycin], in data set [1], the immunosuppressant activity result is on record as “immunosuppressant activity”. Besides, the “effectiveness against Candida albicans in vitro” value in the data set on Candida albicans [2] is recorded as “particularly effective”. Besides, the “effectiveness against Candida albicans in vivo” value in the data set with Candida albicans [3] was “particularly effective”.
